In ChEMBL document CHEMBL5465560, “Selectivity Literature for EUbOPEN Chemogenomic Library” (2024):

What was measured:
[1] = biological target: Serine/threonine-protein kinase 33 (Homo sapiens) (UniProt Q9BYT3); assay: Selectivity interaction (ProQinase) EUB0000171b STK33
[2] = biological target: Dual specificity tyrosine-phosphorylation-regulated kinase 1A (Homo sapiens, UniProt Q13627); assay: Selectivity interaction (KinomeScan (DiscoverX)) EUB0001079a DYRK1A; settings: at 1 µM
[3] = biological target: Serine/threonine-protein kinase SIK2 (Homo sapiens) (UniProt Q9H0K1); assay: Selectivity interaction (Kinase panel (Z-LYTE Assay)) EUB0001632a SIK2; settings: at 10 µM
[4] = biological target: T1, Mitogen-activated protein kinase kinase kinase 5 (Homo sapiens) (UniProt Q99683); assay: Selectivity interaction (ActivX KiNativ screen (kinase selectivity in THP-1 cell lysates)) EUB0000639a MAP3K5; assay type: subcellular; settings: lysate, at 1 µM
T1 sequence (whole entry): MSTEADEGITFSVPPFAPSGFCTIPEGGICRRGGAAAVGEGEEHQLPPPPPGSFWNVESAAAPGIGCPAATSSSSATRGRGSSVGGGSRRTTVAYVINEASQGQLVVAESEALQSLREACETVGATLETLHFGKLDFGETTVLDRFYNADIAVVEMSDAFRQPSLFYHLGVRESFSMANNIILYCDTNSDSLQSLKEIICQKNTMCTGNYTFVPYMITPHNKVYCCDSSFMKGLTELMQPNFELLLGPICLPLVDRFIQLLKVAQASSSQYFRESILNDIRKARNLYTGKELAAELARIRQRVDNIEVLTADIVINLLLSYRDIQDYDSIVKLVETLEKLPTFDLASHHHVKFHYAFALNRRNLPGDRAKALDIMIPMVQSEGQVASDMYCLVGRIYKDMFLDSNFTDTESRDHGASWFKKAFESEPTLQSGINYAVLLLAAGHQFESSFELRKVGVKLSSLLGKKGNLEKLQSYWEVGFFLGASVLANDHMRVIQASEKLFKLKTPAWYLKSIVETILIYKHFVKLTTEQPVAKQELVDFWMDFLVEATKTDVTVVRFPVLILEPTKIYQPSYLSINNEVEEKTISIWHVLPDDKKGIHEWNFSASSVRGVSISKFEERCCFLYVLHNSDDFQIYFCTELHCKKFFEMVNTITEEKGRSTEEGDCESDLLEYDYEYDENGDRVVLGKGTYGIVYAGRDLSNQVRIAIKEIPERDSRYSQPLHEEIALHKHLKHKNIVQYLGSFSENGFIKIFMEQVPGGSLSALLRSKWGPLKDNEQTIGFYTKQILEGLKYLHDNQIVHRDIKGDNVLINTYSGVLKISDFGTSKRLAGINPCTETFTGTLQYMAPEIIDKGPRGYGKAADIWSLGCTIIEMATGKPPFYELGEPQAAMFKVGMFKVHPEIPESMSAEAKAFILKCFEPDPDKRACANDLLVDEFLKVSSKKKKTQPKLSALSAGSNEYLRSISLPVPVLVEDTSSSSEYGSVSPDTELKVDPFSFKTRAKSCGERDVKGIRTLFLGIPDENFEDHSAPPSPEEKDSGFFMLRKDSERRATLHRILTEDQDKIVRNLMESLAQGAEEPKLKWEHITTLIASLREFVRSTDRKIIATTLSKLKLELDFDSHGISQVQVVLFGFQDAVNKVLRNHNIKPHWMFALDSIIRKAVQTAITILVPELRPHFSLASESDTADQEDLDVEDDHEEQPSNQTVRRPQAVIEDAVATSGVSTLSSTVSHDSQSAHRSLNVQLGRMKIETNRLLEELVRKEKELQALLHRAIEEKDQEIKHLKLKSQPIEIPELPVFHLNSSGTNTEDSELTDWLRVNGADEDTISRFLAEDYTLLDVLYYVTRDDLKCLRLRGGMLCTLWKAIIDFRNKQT

[5] = biological target: MAP/microtubule affinity-regulating kinase 3 (Homo sapiens) (UniProt P27448); assay: Selectivity interaction (ActivX KiNativ screen (kinase selectivity in THP-1 cell lysates)) EUB0000639a MARK3; assay type: subcellular; settings: lysate, at 0.04 µM
[6] = biological target: T2, Ephrin type-B receptor 3 (Homo sapiens) (UniProt P54753); assay: Selectivity interaction (KinomeScan (DiscoverX)) EUB0000595a EPHB3; settings: at 10 µM
T2 sequence (whole entry): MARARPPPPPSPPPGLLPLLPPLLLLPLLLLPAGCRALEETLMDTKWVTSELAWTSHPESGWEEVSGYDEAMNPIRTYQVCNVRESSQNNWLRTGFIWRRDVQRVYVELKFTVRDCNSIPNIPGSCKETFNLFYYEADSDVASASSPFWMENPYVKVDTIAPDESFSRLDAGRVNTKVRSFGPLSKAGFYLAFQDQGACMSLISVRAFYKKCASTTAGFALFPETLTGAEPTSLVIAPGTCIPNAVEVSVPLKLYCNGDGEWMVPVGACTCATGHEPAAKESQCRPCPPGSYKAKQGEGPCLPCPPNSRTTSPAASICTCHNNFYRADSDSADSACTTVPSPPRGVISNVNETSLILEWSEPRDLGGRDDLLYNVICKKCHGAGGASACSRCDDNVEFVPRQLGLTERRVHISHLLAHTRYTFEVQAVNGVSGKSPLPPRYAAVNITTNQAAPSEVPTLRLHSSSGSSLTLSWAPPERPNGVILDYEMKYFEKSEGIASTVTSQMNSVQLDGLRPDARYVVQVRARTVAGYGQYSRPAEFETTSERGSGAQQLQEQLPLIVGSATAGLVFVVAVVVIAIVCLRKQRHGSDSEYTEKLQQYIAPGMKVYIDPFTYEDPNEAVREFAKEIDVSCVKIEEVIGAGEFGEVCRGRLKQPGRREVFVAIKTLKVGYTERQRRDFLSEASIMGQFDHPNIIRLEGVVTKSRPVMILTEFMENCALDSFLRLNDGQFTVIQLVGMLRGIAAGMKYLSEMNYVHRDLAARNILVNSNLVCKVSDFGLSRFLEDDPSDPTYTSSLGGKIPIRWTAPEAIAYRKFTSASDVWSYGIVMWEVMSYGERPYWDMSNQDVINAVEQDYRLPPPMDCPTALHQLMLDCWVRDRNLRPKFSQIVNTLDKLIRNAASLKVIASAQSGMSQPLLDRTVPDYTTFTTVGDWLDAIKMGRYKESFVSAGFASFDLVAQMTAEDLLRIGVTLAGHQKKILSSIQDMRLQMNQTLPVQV

hERG (KCNH2) = hERG (KCNH2) (Homo sapiens, UniProt Q12809); assay: Selectivity interaction (Eurofins CEREP Diversity Profile (receptors and ion channels)) EUB0000279b KCNH2; settings: at 10 µM, read-out: % of control
CDK9/cyclin T1 = CDK9/cyclin T1 (Homo sapiens, UniProt P50750); assay: Selectivity interaction (Radiometric kinase assay ) EUB0000090b CDK9; assay type: protein-complex assay
Sequence of CDK9/cyclin T1 (O60563 whole entry): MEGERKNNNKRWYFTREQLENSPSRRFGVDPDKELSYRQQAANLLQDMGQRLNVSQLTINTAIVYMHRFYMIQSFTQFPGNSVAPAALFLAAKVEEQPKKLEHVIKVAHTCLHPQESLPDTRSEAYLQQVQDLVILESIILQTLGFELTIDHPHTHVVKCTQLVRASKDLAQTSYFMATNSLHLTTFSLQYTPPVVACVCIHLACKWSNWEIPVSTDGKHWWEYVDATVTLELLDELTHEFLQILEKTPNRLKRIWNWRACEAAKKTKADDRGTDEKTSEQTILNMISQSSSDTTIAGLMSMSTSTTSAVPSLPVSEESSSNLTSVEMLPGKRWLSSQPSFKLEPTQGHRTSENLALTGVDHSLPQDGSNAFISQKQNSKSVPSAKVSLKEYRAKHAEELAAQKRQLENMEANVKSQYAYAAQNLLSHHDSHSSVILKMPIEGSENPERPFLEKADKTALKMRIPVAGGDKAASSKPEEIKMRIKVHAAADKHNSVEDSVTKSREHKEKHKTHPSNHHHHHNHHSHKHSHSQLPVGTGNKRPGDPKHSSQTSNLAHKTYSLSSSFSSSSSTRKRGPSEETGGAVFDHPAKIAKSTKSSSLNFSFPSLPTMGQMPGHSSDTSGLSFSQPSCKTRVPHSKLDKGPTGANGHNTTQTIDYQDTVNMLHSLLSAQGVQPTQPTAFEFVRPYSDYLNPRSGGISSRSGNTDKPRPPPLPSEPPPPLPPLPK
Sequence of CDK9/cyclin T1 (P50750 whole entry): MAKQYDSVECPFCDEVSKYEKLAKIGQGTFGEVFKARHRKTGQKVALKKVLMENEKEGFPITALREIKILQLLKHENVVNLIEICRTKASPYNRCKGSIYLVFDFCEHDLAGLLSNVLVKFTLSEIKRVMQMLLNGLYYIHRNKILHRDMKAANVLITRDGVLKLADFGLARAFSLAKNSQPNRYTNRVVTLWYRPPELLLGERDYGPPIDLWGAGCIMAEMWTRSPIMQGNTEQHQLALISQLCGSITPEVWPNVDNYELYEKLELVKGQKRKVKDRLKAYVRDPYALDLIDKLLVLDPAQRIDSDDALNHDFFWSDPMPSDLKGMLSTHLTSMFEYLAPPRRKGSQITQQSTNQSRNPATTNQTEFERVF

Sequence of Serine/threonine-protein kinase 33 (Homo sapiens) (Q9BYT3 whole entry, looked up): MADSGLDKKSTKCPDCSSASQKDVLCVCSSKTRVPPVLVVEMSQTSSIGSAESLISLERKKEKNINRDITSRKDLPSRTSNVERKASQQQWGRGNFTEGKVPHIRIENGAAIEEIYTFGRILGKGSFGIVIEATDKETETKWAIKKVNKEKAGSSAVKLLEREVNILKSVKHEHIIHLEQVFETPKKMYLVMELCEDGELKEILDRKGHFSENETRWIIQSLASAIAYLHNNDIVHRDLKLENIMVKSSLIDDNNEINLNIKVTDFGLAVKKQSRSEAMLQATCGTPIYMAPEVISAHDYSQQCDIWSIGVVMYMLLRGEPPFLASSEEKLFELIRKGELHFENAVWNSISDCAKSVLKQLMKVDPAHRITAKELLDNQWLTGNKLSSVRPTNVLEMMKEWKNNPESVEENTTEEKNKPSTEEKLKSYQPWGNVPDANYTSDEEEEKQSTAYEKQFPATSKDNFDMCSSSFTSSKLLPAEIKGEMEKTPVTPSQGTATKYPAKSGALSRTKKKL
Sequence of hERG (KCNH2) (Q12809 whole entry): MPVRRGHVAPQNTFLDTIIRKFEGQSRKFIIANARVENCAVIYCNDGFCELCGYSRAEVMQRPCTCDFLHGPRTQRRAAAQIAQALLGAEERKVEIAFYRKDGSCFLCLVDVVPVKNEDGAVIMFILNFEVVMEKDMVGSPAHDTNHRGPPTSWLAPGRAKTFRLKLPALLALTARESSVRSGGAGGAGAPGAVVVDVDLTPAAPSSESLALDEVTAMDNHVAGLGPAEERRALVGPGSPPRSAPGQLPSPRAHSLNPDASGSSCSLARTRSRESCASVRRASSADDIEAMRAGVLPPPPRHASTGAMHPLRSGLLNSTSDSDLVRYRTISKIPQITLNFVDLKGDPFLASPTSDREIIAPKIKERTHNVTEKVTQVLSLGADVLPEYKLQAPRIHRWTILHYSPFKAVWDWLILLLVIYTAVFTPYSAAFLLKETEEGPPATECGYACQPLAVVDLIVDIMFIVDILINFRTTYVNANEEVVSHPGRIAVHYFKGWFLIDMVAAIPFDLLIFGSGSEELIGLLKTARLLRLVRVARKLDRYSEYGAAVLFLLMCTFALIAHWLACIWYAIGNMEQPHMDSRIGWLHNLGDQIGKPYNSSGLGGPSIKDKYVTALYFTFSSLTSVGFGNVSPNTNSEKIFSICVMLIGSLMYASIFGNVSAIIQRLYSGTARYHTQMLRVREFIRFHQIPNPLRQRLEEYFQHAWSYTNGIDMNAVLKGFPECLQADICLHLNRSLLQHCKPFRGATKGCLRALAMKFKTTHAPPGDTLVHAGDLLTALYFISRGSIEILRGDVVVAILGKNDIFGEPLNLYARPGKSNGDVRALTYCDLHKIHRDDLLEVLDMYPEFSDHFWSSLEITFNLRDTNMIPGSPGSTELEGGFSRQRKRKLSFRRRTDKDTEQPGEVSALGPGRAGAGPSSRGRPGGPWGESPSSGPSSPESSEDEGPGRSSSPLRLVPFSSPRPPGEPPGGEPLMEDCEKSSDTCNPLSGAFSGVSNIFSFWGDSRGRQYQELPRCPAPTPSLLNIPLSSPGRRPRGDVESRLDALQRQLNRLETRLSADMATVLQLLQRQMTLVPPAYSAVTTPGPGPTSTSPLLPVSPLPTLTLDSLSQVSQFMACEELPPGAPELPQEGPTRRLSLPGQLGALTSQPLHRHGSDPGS
Sequence of MAP/microtubule affinity-regulating kinase 3 (Homo sapiens) (P27448 whole entry, looked up): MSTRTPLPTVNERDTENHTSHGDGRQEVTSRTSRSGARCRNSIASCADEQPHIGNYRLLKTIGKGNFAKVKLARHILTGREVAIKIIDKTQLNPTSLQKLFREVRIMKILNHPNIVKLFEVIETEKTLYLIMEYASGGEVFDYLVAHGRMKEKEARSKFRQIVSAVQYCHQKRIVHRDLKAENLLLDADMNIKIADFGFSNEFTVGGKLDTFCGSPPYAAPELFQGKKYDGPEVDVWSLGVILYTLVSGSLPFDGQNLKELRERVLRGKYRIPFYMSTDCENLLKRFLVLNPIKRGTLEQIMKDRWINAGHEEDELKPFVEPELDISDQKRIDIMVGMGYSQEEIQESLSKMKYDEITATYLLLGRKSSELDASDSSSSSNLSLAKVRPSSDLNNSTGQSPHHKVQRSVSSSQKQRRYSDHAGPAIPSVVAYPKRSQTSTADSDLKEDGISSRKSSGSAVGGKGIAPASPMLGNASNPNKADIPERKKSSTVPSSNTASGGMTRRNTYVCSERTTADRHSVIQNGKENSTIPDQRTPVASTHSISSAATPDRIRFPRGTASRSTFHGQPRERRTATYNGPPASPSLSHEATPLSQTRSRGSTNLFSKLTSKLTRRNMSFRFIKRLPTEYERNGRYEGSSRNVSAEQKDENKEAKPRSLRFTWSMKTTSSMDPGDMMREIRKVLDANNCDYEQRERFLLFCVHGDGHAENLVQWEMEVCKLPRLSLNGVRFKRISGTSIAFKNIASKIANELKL
Sequence of Serine/threonine-protein kinase SIK2 (Homo sapiens) (Q9H0K1 whole entry, looked up): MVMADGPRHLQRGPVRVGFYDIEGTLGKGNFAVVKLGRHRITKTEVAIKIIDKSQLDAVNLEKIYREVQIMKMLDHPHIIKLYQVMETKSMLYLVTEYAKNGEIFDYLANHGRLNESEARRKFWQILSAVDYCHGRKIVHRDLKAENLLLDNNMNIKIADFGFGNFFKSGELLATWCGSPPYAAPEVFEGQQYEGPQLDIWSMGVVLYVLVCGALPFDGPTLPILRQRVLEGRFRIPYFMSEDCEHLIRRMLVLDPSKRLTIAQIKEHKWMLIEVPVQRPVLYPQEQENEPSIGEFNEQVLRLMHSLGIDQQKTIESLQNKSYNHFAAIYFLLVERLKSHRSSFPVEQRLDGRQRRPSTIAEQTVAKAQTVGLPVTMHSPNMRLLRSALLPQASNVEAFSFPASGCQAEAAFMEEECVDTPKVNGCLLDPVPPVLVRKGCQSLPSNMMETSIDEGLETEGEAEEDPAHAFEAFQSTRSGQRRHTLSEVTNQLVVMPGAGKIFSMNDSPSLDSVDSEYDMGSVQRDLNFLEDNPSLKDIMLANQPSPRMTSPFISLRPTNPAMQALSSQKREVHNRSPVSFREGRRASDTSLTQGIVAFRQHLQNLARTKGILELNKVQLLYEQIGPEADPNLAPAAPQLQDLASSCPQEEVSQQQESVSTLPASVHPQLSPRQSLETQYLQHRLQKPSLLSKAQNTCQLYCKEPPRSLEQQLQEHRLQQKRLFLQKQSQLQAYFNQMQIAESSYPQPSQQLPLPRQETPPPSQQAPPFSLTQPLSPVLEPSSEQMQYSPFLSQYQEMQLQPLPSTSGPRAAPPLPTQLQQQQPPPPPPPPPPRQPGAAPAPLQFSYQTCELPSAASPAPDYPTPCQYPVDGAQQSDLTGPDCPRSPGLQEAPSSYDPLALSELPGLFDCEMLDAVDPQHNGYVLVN

For `C=CC(=O)Nc1cccc(C(=O)Nc2ccc(Nc3cc(-c4[nH]c(SC)nc4C)ccn3)cc2)c1`, the % of control ([1]; at 1 µM) was 76% and the % of control ([1]; at 5 µM) was 71%.

Compound `Nc1cnc(N2CCc3cc(S(=O)(=O)Nc4c(F)cc(Cl)cc4F)cc(N4CCCC4=O)c32)nc1` [TP-020n] has a % of control [2] of 80%.

Work on `Cn1cc(-n2cnc3c(NCc4nc5cc(Cl)c(Cl)cc5[nH]4)nc(N4CCOCC4)nc32)cn1` yielded a % of control [3] of 5.35%.

`CC[C@@H]1[C@H](F)C(=O)N[C@@H]1COc1nccc2cc(C(N)=O)c(OC)cc12` [ZIMLOVISERTIB] gave a % of inhibition [4] of -29.6% and a % of inhibition [5] of -13.3%.

`COCC(=O)NC/C=C/c1ccc2ncnc(Nc3ccc(Oc4ccc(C)nc4)c(C)c3)c2c1` [CP-724714] was tested, and the % of control [6] was 86%.

`CC(=O)c1cc(-c2ccccc2OCC2CC2)c2ncccn12` showed an activity (hERG (KCNH2)) of 111%.

In the case of `CN(C)C/C=C/C(=O)Nc1ccc(C(=O)N2CCCC(Nc3ncc(Cl)c(-c4c[nH]c5ccccc45)n3)C2)cc1` (centres undefined), the IC50 (CDK9/cyclin T1) is reported as 10.5 µM.
